One block for each molecule: values may come before it.
Legend:
[1] = target: T1, OR4S2 (original olfactory receptor) (Homo sapiens, UniProt Q8NH73); assay: Luciferase assay, sulfur compounds; type: cell-based
T1 construct: expressed in transfected cells; host or cells: HEK293
T1 sequence (Q8NH73 1-311): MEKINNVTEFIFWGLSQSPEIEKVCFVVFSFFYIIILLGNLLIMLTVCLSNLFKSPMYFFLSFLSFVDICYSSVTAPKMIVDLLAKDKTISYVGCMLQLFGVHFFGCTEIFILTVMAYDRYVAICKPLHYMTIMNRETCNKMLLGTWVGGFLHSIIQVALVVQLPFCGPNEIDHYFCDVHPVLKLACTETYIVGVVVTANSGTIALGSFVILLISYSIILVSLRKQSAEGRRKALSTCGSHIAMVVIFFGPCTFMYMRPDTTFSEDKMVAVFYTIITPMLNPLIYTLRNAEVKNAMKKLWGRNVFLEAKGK
Experimental: (§1) A reaction solution as to each consensus olfactory receptor prepared in Examples described above was prepared according to the composition shown in Table 4, left standing for 20 minutes in a clean bench, and then added to each well of a 96-well plate (Becton, Dickinson and Company). The original olfactory receptor was used as to OR4S2. Composition shown in Table 20 was used as to OR11H2 and OR4E2. Subsequently, 100 μL of HEK293 cells suspended in DMEM (Nacalai Tesque, Inc.) was inoculated at 2×10^5 cells/cm^2 to each well, and cultured for 24 hours in an incubator kept at 37° C. and 5% CO2. Cells expressing no olfactory receptor (Mock) were provided as a control.
(§2) The medium was removed from the cultures prepared in 1), and 75 μL of a test substance solution (methyl mercaptan (MeSH) (CAS: 74-93-1, Tokyo Chemical Industry Co., Ltd.), dimethyl sulfide (DMS) (CAS: 75-18-3, FUJIFILM Wako Pure Chemical Corp.), dimethyl disulfide (DMDS) (CAS: 624-92-0, Tokyo Chemical Industry Co., Ltd.), concentration range: 0 μM, 1 μM, 3 μM, 10 μM, 30 μM, 100 μM, and 300 μM, or dimethyl trisulfide (DMTS) (CAS: 3658-80-8, Tokyo Chemical Industry Co., Ltd.), concentration range: 0 μM, 0.1 μM, 0.3 μM, 1 μM, 3 μM, 10 μM, and 30 μM) prepared with a fresh medium was added thereto. Under a copper ion addition condition, the test substance solution was adjusted to contain 30 μM copper(II) chloride (FUJIFILM Wako Pure Chemical Corp.) in addition to the odorant. The cells were cultured for 4 hours in a CO2 incubator and the luciferase gene was expressed sufficiently in the cells. Luciferase activity was measured using Dual-Glo™ luciferase assay system (Promega Corp.) in accordance with the operation manual of the product. A luminescence value derived from firefly luciferase induced by test substance stimulation in each well of the 96-well plate was divided by a luminescence value derived from Renilla luciferase to calculate a value (fluc/hRluc) as a signal, which was then used in analysis. The signal under each transfection condition was normalized with the signal value (fluc/hRluc) under an odorant stimulation-free condition defined as 0% and the signal value (fluc/hRluc) by stimulation with 10 μM forskolin defined as 100%, and used as a response (%) in analysis.

consensus OR11H2 = target: T2, consensus OR11H2 (Homo sapiens, UniProt Q8NH07, A157T/A61V/C266F/D203A/E289A/F213L/F41L/F62C/G242R/I210T/I230L/I288V/I49T/K181M/K238L/L128F/L146H/L162I/M76I/N106T/N25R/P269S/Q137R/Q308R/Q30L/R68Q/S246A/S268G/T131A/T283A/T37K/V63A/Y156C); assay: Luciferase assay, sulfur compounds; type: cell-based
T2 construct: expressed in transfected cells; host or cells: HEK293
T2 sequence (Q8NH07 12-326 N25R/Q30L/T37K/F41L/I49T/A61V/F62C/V63A/R68Q/M76I/N106T/L128F/T131A/Q137R/L146H/Y156C/A157T/L162I/K181M/D203A/I210T/F213L/I230L/K238L/G242R/S246A/C266F/S268G/P269S/T283A/I288V/E289A/Q308R): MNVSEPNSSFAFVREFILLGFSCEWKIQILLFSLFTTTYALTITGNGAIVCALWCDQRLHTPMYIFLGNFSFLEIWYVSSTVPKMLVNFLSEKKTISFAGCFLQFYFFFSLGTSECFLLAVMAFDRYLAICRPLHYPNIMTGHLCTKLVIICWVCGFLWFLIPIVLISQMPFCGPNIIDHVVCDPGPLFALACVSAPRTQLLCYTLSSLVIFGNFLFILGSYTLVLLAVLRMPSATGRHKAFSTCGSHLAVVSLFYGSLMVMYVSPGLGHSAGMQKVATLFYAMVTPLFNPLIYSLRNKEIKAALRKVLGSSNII
Experimental: as §1, §2

consensus OR4C15 = target: T3, consensus OR4C15 (Homo sapiens, UniProt Q8NGM1, A218G/A270V/E23K/G63A/I200A/I247V/I275T/L152F/L222F/L266F/M197L/N174D/N209I/N278T/Q295N/R137W/R299K/T258A/T88R/V55G/V87E/W233R); assay: Luciferase assay, sulfur compounds; type: cell-based
T3 construct: Flag (N); Rho tag (N); expressed in transfected cells; host or cells: HEK293
Experimental: as §1, §2

consensus OR4E2 = target: T4, consensus OR4E2 (Homo sapiens, UniProt Q8NGC2, A48T/F285L/G158V/H228Q/I116T/I142V/I197M/I47V/L183P/M219T/M25I/M36V/Q234R/R21W/S209T/S40L/S54R/T201S/T49I/T99A/V118M/V214L); assay: Luciferase assay, sulfur compounds; type: cell-based
T4 construct: Flag (N); Rho tag (N); expressed in transfected cells; host or cells: HEK293
T4 sequence (Q8NGC2 1-312 R21W/M25I/M36V/S40L/I47V/A48T/T49I/S54R/T99A/I116T/V118M/I142V/G158V/L183P/I197M/T201S/S209T/V214L/M219T/H228Q/Q234R/F285L limits assumed): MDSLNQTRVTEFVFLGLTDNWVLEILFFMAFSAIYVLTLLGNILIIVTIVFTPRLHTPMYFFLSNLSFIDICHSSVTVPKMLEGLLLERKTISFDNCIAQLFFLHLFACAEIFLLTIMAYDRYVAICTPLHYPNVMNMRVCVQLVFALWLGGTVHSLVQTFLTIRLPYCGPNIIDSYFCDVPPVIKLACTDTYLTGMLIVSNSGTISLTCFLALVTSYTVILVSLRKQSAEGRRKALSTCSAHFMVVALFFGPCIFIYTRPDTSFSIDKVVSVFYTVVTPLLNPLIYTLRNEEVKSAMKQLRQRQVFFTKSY
Experimental: as §1, §2

consensus OR4K17 = target: T5, consensus OR4K17 (Homo sapiens, UniProt Q8NGC6, A163V/E24Q/F120Y/F158L/G263S/I192T/I205M/I296T/I46V/K226R/L86V/P230S/S297A/V197I/V23I/V81M/V91T); assay: Luciferase assay, sulfur compounds; type: cell-based
T5 construct: expressed in transfected cells; host or cells: HEK293
T5 sequence (Q8NGC6 with tags, fused parts or gaps V23I/E24Q/I46V/V81M/L86V/V91T/F120Y/F158L/A163V/I192T/V197I/I205M/K226R/P230S/G263S/I296T/S297A): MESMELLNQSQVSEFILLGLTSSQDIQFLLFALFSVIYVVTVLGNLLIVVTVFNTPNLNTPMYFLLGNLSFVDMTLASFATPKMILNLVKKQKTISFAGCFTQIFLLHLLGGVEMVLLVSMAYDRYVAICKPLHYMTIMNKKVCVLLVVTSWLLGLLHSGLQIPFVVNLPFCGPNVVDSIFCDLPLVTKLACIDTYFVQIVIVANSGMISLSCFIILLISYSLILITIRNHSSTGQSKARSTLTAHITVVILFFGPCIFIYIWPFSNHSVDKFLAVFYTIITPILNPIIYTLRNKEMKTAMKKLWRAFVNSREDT
Experimental: as §1, §2

OR4E2 = OR4E2 (Homo sapiens, UniProt Q8NGC2); settings: in the presence of a metal ion (JP-A-2020-513564); cited from earlier work
[2] = tested on: HEK293 cells expressing olfactory receptor; assay: Luciferase assay: ligand responsiveness of consensus vs original olfactory receptors; type: cell-based, human; settings: consensus design
Experimental: For luciferase assay, a reaction solution was prepared according to composition shown in Table 4, left standing for 20 minutes in a clean bench, and then added to each well of a 96-well plate (Becton, Dickinson and Company). Subsequently, 100 μL of HEK293 cells suspended in DMEM (Nacalai Tesque, Inc.) was inoculated at 2×10^5 cells/cm^2 to each well, and cultured for 24 hours in an incubator kept at 37° C. and 5% CO2. Cells expressing no olfactory receptor (Mock) were provided as a control.
The medium was removed from the cultures prepared in 2), and 75 μL of a test substance solution with a predetermined concentration prepared with a fresh medium was added thereto. The cells were cultured for 4 hours in a CO2 incubator and the luciferase gene was sufficiently expresses in the cells. Luciferase activity was measured using Dual-Glo™ luciferase assay system (Promega Corp.) in accordance with the operation manual of the product. A luminescence value derived from firefly luciferase induced by test substance stimulation in each well of the 96-well plate was divided by a luminescence value derived from Renilla luciferase to calculate a signal, which was then used in analysis. The signal under each transfection condition was normalized with the signal under a stimulation-free condition defined as 0% and the signal by stimulation with 30 μM forskolin defined as 100%, and used as a response (%) in analysis.

[3] = in the presence of a copper ion

T3 sequence (Q8NGM1 1-311 with the stated changes limits assumed): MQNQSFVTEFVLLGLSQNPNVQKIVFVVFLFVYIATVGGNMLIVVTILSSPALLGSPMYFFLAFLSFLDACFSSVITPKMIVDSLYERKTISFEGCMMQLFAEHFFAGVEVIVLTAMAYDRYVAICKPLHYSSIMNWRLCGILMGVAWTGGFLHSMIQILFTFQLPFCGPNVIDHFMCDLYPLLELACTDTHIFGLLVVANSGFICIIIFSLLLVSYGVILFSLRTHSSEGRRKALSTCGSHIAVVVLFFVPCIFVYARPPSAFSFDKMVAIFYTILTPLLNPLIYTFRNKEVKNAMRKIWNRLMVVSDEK
Chain of OR4E2 (Q8NGC2 whole entry): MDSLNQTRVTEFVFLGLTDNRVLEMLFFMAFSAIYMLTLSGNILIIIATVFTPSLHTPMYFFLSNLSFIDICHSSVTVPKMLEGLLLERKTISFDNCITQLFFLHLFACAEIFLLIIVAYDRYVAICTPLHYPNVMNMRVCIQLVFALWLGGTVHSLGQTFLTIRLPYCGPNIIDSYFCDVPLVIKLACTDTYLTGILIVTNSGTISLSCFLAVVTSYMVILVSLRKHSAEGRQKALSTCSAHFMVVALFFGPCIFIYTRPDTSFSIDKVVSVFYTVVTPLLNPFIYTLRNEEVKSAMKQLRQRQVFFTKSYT

EC50 ([1]; OR4S2 (original), 30 μM CuCl2, read-out: EC50(μM) with 30 μM CuCl2): 22 µM | dose dependence of the response of OR4S2 [1, 3]: dose-dependent manner | response of OR4S2 [1, 3]: responded | EC50 (consensus OR11H2; consensus OR11H2, 30 μM CuCl2): 22 µM | dose dependence of the response of consensus OR11H2 (consensus OR11H2; [3]): dose-dependent manner | response of consensus OR11H2 (consensus OR11H2; [3]): responded | EC50 (consensus OR4C15; consensus OR4C15, 30 μM CuCl2, read-out: EC50(μM) with 30 μM CuCl2): 414 µM | dose dependence of the response of consensus OR4C15 (consensus OR4C15; [3]): dose-dependent manner | response of consensus OR4C15 (consensus OR4C15; [3]): responded | EC50 (consensus OR4E2; consensus OR4E2, 30 μM CuCl2, read-out: EC50(μM) with 30 μM CuCl2): 22 µM | dose dependence of the response of consensus OR4E2 (consensus OR4E2; [3]): dose-dependent manner | response of consensus OR4E2 (consensus OR4E2; [3]): responded | EC50 (consensus OR4K17; consensus OR4K17, 30 μM CuCl2, read-out: EC50(μM) with 30 μM CuCl2): 188 µM | dose dependence of the response of consensus OR4K17 (consensus OR4K17; [3]): dose-dependent manner | response of consensus OR4K17 (consensus OR4K17; [3]): responded
Molecule: CSC [dimethyl sulfide]

Molecule: CC(C)(S)CCO [3-mercapto-3-methylbutanol]
response of OR4E2 (OR4E2): responds

Molecule: C=CCSSSCC=C [diallyl trisulfide]
response of OR4E2 (OR4E2): responds

B1: consensus OR4S2 (b): consensus olfactory receptor polypeptide (protein)
chain: MEKINNVTEFIFWGLSQSPEVQRVCFVVFLFFYIAIVLGNLLIVLTVCLSNSLKSPMYFFLSFLSFVEICYSSVTAPKMIVDLLAKDKTISYVGCMLQLFFVHFFGCTEIFLLTVMAYDRYVAICKPLHYMTIMNRQTCNKLVLGTWVGGFLHSIIQVLLVVQLPFCGPNVIDHYFCDLHPVLKLACTDTFIVGVVVTANSGTIALGSFVILLISYSIILVSLRKQSAEGRRKALSTCGSHITVVILFFGPCIFMYMRPSTTFSEDKMVAVFYTIITPMLNPLIYTLRNAEVKNAMKKLWGRNVFLEAKGK
modifications: OR4S2 consensus-b
notes: consensus olfactory receptor polypeptide
ligand responsiveness in comparison with the original human receptor [2]: elevates responsiveness

B2: consensus OR7A17 (a): consensus olfactory receptor polypeptide (protein)
chain: MEPENDTGISEFLLLGLSEEPELQPFLFGLFLSMYLVTVLGNLLIILATISDSHLHTPMYFFLSNLSFADICFISTTVPKMLINIQTQSRVITYAGCITQMCFFVLFGGLDSLLLAVMAYDRFVAICHPLHYTVIMNPRLCGLLVLASWMIAALNSLSQSLMVLWLSFCTDLEIPHFFCELNQVIHLACSDTFLNDMGMYFAAGLLAGGPLAGILYSYSKIVSSIRAISSAQGKYKAFSTCASHLSVVSLFCCTGLGVYLTSAATHNSHTSATASVMYTVATPMLNPFIYSLRNKDIKRALKMSFRGKQ
modifications: OR7A17 consensus-a
notes: as for B1
ligand responsiveness in comparison with the original human receptor [2]: elevates responsiveness

B3: consensus OR7D4 (c): consensus olfactory receptor polypeptide (protein)
chain: MEAENHTEVSEFLLLGLSEDPELQPLLFGLFLSMYLVTVLGNLLIILAISSDSHLHTPMYFFLSNLSFVDICFISTTVPKMLVNIQAQSKDISYMGCLTQVYFFMIFAGMDNFLLTVMAYDRFVAICHPLHYTVIMNPRLCGLLVLASWFIIFWVSLVHILLMKRLTFCTGTEIPHFFCELAQVLKVACSDTLINNIVLYVATALLGVFPLTGILFSYSQIVSSLMRMSSTKGKYKAFSTCGSHLSVVSLFYGTGLGVYLSSAVTHSSQSSSIASVMYTVVTPMLNPFIYSLRNKDVKGALGRLLSRAASCP
modifications: OR7D4 consensus-c
notes: as for B1
ligand responsiveness in comparison with the original human receptor [2]: sufficiently elevated

B4: consensus OR2A25 (b): consensus olfactory receptor polypeptide (protein)
chain: MGGNQTSITEFLLLGFPVGPRIQMLLFGLFSLFYVFTLLGNGTILGLISLDSRLHTPMYFFLSHLAVVDIAYACNTVPQMLVNLLHPAKPISFAGCMTQTFLFLSFAHTECLLLVVMSYDRYVAICHPLRYSAIMTWRVCITLALTSWTLGVLLALIHLVLLLPLPFCRPQKINHFFCEIMAVLKLACADTHINEVMVLAGAISVLVGPLSSIVVSYMCILCAILKIQSGEGQRKAFSTCSSHLCVVGLFYGTAIIMYVGPQYGNPKEQKKYLLLFHSLFNPMLNPLIYSLRNSEVKNTLKRMLEKERAL
modifications: OR2A25 consensus-b
notes: as for B1
ligand responsiveness in comparison with the original human receptor [2]: sufficiently elevated
